The source of these data is patent US20210283082A1, “PHARMACEUTICAL COMPOSITION FOR PREVENTION OR TREATMENT OF KIDNEY DAMAGE” (National University Corporation Kanazawa University, priority 2018, published 2021).

A short description of data set [1]: Blood D-serine concentration after free provision of 20 mM D-serine water. It counts as in vivo. The following applies: mice reared with free access to 20 mM D-serine-containing water. Here is the method: The animals were reared with free access to water and feed under conditions with an SPF environment and 12-hour light-dark cycling. C57BL/6J mice were purchased from Clea Japan, Inc. (Osaka).
The mice were reared in an environment allowing free access to water (control) or 20 mM D-serine-containing water, and the blood D-serine concentrations were measured. The blood D-serine concentrations were determined by total amino acid optical isomer analysis using a D, L-amino acid simultaneous high sensitivity analysis system developed by Zaitsu et al. (Japanese Patent No. 4291628). The details regarding the analysis conditions for each amino acid are described in Miyoshi Y. et al., J. Chromatogr. B, 879:3184(2011) and Sasabe, J. et al., Proc. Natl. Acad. Sci. U.S.A., 109:627(2012). In brief, serum and urine amino acids were fluorescently derivatized with NBD-F (4-fluoro-7-nitro-2,1,3-benzooxadiazole, Tokyo Kasei Kogyo Co., Ltd.) and supplied to an HPLC system (NANOSPACE SI-2 Series, product of Shiseido Corp.). NBD-amino acids separated two-dimensionally using an in-house reversed-phase column with an octadecyl group as the stationary phase and a chiral column with an amino acid derivative as the stationary phase, were quantitatively analyzed after detection at an excitation wavelength of 470 nm and a detection wavelength of 530 nm. […]

In data set [2] the test system is mice treated by renal ischemia reperfusion. Description: Renal ischemia reperfusion, F4/80 immunostaining of kidney tissue (macrophages). It counts as in vivo. The following applies: day 5 after ischemia reperfusion; 20 mM D-serine water vs water. Here is the method:
The animals were reared with free access to water and feed under conditions with an SPF environment and 12-hour light-dark cycling. C57BL/6J mice were purchased from Clea Japan, Inc. (Osaka). Male 12- to 16-week-old mice were treated by renal ischemia reperfusion (hereunder also referred to as “I/R”). The renal pedicles were clamped with a non-traumatic clip (Natsume Seisakusho, Tokyo) under pentobarbital anesthesia to elicit ischemia. The clips were released after 40 minutes. The body temperature was kept at 37° C. during treatment. The mice were reared with free access to water (control) or 20 mM D-serine-containing water, prior to 14 days after IR treatment. On day 0, 2, 5, 7 and 10 after IR treatment, the kidney tissues were sampled. Renal samples harvested on day 0 and day 5 were fixed with 10% neutral buffered formalin and supplied for immunostaining using F4/80 antibody (Invitrogen, catalog #: MF48,000). F4/80 is a protein expressed specifically by macrophages, and it allows visualization of macrophages in kidney tissue. In the water-administered control group, cells stained with F4/80 were found accumulated in kidney tissue (day 5), but in the D-serine-administered group such cellular accumulation was minimal (FIG. 3(A)). The regions stained with F4/80 in the kidney tissue harvested on day […] were measured and shown (FIG. 3(B)).

Data set [3] has the same test system. Description: Renal ischemia reperfusion, PAS staining and ATN score of kidney tissue sections. It counts as in vivo. As for the experimental part:
The animals were reared with free access to water and feed under conditions with an SPF environment and 12-hour light-dark cycling. C57BL/6J mice were purchased from Clea Japan, Inc. (Osaka). Male 12- to 16-week-old mice were treated by renal ischemia reperfusion (hereunder also referred to as “I/R”). The renal pedicles were clamped with a non-traumatic clip (Natsume Seisakusho, Tokyo) under pentobarbital anesthesia to elicit ischemia. The clips were released after 40 minutes. The body temperature was kept at 37° C. during treatment. The mice were reared with free access to water (control) or 20 mM D-serine-containing water, prior to 14 days after IR treatment. On day 0, 2, 5, 7 and 10 after IR treatment, the kidney tissues were sampled. Kidneys sampled on day 0, 2 and 10 were fixed with 10% neutral buffered formalin and embedded in paraffin, and then stained with periodic acid-Schiff (PAS staining). The stained slices were photographed with a bright-field microscope (FIG. 1). Debris stained with PAS (skin boundary) or brush border (skin boundary and cortical region) were quantitatively evaluated in at least 10 different locations. Renal tubule necrosis (A), intraluminal debris (B) and brush border region (C) were evaluated by ATN score (0: none, 1: mild, 2: moderate, 3: severe), with the results shown in FIGS. 2(A) to (C). Sample evaluation was carried out blind.

Another data set deals with rats. The following applies: intraperitoneal, 800 mg/kg (NPL 3), 400 mg/kg (NPL 4) or 250 mg/kg (NPLs 5 and 6); cited from earlier work.

“Also recorded” adds a separate entry of the source.

With `N[C@H](CO)C(=O)O` [D-serine], the “blood D-serine concentration” value in data set [1] is given as 100 nmol/mL. In addition, in data set [2], the “F4/80 staining of kidney tissue (accumulation of macrophages and monocytes)” value is reported as “little change in staining intensity; also recorded: minimal”. For the same compound, the “grades of necrosis, intraluminal debris and brush border region (ATN score)” value in data set [3] (0, 2, 5, 7 and 10 days after ischemia reperfusion, compared to the group given water) is “improved”. Moreover, the “PAS staining intensity of kidney tissue section (accumulation of inflammatory cells such as neutrophils and eosinophils)” value in data set [3] (day 10 after ischemia reperfusion, 20 mM D-serine water vs water) is given as “no such change in staining intensity”. Besides, in data set [3] (mice, drinking water containing 20 mM D-serine, blood concentration 100 nmol/mL), the “protecting effect on the kidneys” value is recorded as “able to exhibit a protecting effect on the kidneys”. For the same compound, the nephrotoxicity entry with rats was “causes nephrotoxicity”.
